Laboratory results reported in ChEMBL document CHEMBL4813991, “Design, synthesis and bioactivity study on 5-phenylfuran derivatives as potent reversal agents against P-glycoprotein-mediated multidrug resistance in MCF-7/ADR cell” (Eur J Med Chem, 2021).
Calls of active or inactive are those of the source. The rule behind the calls is not given here.

Experiments:
[1] = Antiproliferative activity against human MCF7/ADR cells assessed as inhibition rate at 10 uM incubated for 48 hrs by CCK-8 assay; format: functional; details: NCI/ADR-RES
[2] = Antiproliferative activity against human MCF7/ADR cells assessed as inhibition rate at 50 uM incubated for 48 hrs by CCK-8 assay; format: functional; details: NCI/ADR-RES
MCF7 [3] = test: Antiproliferative activity against human MCF7 cells assessed as inhibition rate at 10 uM incubated for 48 hrs by CCK-8 assay; format: functional
MCF7 [4] = test: Antiproliferative activity against human MCF7 cells assessed as inhibition rate at 50 uM incubated for 48 hrs by CCK-8 assay; format: functional
NCI/ADR-RES [5] = test: Antiproliferative activity against human MCF7/ADR cells incubated for 48 hrs by CCK-8 assay; format: functional, cell-based
[6] = target: T1, ATP-dependent translocase ABCB1 (Homo sapiens, UniProt P08183); test: Inhibition of P-glycoprotein in human MCF7/ADR cells assessed as reversal fold by measuring reduction in daunorubicin IC50 at 5 uM incubated for 48 hrs by CCK-8 assay; format: cell-based; details: nci/adr-res
[7] = target: T1, ATP-dependent translocase ABCB1; test: Inhibition of P-glycoprotein in human MCF7/ADR cells assessed as reversal fold by measuring reduction in vincristine IC50 at 5 uM incubated for 48 hrs by CCK-8 assay; format: cell-based; details: nci/adr-res
[8] = target: T1, ATP-dependent translocase ABCB1; test: Inhibition of P-glycoprotein in human MCF7/ADR cells assessed as reversal fold by measuring reduction in doxorubicin IC50 at 0.5 uM incubated for 48 hrs by CCK-8 assay; format: cell-based; details: nci/adr-res
NCI/ADR-RES [9] = test: Effect on P-glycoprotein expression in human MCF7/ADR cells upto 10 uM after 48 hrs by Western blot analysis; format: functional, cell-based; details: dose microM <=10, time 48.0 hrs
[10] = target: T1, ATP-dependent translocase ABCB1; test: Inhibition of P-glycoprotein in human MCF7/ADR cells assessed as rhodamine-123 accumulation by measuring fluorescence intensity at 0.1 uM measured after 30 mins by flow cytometry analysis; format: cell-based; details: nci/adr-res, 0.5 h
[11] = target: T1, ATP-dependent translocase ABCB1; test: Inhibition of P-glycoprotein in human MCF7/ADR cells assessed as rhodamine-123 accumulation by measuring fluorescence intensity at 10 uM measured after 30 mins by flow cytometry analysis; format: cell-based; details: nci/adr-res, 0.5 h
[12] = target: T1, ATP-dependent translocase ABCB1; test: Inhibition of P-glycoprotein in human MCF7/ADR cells assessed as reversal fold by measuring reduction in doxorubicin IC50 at 0.05 uM incubated for 48 hrs by CCK-8 assay; format: cell-based; details: nci/adr-res
[13] = target: T1, ATP-dependent translocase ABCB1; test: Inhibition of P-glycoprotein in human MCF7/ADR cells assessed as rhodamine-123 accumulation by measuring fluorescence intensity at 1 uM measured after 30 mins by flow cytometry analysis; format: cell-based; details: nci/adr-res, 0.5 h
[14] = target: T1, ATP-dependent translocase ABCB1; test: Inhibition of P-glycoprotein in human MCF7/ADR cells assessed as reversal fold by measuring reduction in paclitaxel IC50 at 5 uM incubated for 48 hrs by CCK-8 assay; format: cell-based; details: nci/adr-res

T1 sequence (P08183 whole entry): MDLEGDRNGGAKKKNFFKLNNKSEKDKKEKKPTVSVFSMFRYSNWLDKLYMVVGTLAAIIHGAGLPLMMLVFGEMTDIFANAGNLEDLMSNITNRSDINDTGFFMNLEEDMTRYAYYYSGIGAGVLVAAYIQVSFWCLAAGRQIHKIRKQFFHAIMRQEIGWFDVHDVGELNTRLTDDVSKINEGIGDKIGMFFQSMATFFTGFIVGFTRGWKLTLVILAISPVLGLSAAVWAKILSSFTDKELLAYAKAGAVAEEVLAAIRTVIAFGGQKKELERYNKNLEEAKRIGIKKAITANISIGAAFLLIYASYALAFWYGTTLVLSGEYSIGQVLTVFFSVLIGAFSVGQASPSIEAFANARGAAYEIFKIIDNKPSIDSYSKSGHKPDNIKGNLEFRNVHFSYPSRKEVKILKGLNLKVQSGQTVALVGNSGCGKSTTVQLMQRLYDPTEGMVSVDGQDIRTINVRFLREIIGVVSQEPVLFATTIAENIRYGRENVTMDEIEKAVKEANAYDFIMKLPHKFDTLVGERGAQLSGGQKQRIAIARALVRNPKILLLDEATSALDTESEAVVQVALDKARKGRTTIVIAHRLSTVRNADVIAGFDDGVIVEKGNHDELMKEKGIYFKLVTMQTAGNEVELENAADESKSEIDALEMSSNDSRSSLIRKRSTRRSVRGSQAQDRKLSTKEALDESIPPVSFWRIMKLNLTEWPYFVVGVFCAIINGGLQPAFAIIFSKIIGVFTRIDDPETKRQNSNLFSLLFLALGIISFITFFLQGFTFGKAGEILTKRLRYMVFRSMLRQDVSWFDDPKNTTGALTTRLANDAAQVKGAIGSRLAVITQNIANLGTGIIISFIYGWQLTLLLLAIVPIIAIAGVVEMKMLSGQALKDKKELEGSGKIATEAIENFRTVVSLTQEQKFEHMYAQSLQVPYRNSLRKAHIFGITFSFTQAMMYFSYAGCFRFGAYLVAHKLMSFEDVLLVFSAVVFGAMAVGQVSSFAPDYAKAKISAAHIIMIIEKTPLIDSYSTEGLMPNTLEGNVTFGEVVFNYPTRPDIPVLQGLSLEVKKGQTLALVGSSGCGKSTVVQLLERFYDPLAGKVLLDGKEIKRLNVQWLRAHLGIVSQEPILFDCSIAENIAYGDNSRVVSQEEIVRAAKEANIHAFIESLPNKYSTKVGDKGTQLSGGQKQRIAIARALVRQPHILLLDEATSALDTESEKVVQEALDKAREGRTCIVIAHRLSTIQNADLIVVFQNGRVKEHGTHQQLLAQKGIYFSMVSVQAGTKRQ

Structure (SMILES)	inhibition at 50 µM [2] [%]	inhibition at 10 µM (MCF7 [3]) [%]	inhibition at 50 µM (MCF7 [4]) [%]	also measured
COc1cc2c(cc1OC)CN(C(=O)c1ccc(-c3ccc(Oc4ccccc4)cc3)o1)CC2	57	7	45.4	inhibition at 10 µM [1]: 27.6%
COc1cc2c(cc1OC)CN(C(=O)c1ccc(-c3ccc(OC(F)(F)F)cc3)o1)CC2	12.7		-4.1	
COc1cc2c(cc1OC)CN(C(=O)c1ccc(-c3ccc(SC(C)C)cc3)o1)CC2	39		33.6	
COc1cc2c(cc1OC)CN(C(=O)c1ccc(-c3cccc(OC)c3OC)o1)CC2	10		39.4	
CCOc1ccc(-c2ccc(C(=O)N3CCc4cc(OC)c(OC)cc4C3)o2)cc1	8.1		20.5	
COc1cccc2c1C(=O)c1c(O)c3c(c(O)c1C2=O)C[C@@](O)(C(C)=O)C[C@@H]3O[C@H]1C[C@H](N)[C@H](O)[C@H](C)O1 [DAUNORUBICIN]				IC50 (NCI/ADR-RES [5]): 51.6 µM; fold change (FC) [6]: 2.8
COc1cccc(-c2ccc(C(=O)N3CCc4cc(OC)c(OC)cc4C3)o2)c1	1.5		-9.9	
COc1cc2c(cc1OC)CN(C(=O)c1ccc(-c3ccc(OCC(C)C)cc3)o1)CC2	11.9		19.2	
COc1ccc(OC)c(-c2ccc(C(=O)N3CCc4cc(OC)c(OC)cc4C3)o2)c1	68.2	11.4	63.6	inhibition at 10 µM [1]: 23.2%
COc1ccc(-c2ccc(C(=O)N3CCc4cc(OC)c(OC)cc4C3)o2)c(OC)c1	59.8	15.4	49.3	inhibition at 10 µM [1]: 28.4%
COc1ccc(-c2ccc(C(=O)N3CCc4cc(OC)c(OC)cc4C3)o2)cc1OC	26.7	17.6	41.8	
COc1cc2c(cc1OC)CN(C(=O)c1ccc(-c3cc(OC)c(OC)c(OC)c3)o1)CC2	51.2	30	64.7	inhibition at 10 µM [1]: 19.6%
CC[C@]1(O)C[C@H]2CN(CCc3c([nH]c4ccccc34)[C@@](C(=O)OC)(c3cc4c(cc3OC)N(C=O)[C@H]3[C@@](O)(C(=O)OC)[C@H](OC(C)=O)[C@]5(CC)C=CCN6CC[C@]43[C@@H]65)C2)C1 [VINCRISTINE]				IC50 (NCI/ADR-RES [5]): 10.1 µM; fold change (FC) [7]: 62.8
COc1cc2c(cc1OC)CN(C(=O)c1ccc(-c3ccc(OC(C)(C)C)cc3)o1)CC2	28.9		33.8	
CCCCOc1ccc(-c2ccc(C(=O)N3CCc4cc(OC)c(OC)cc4C3)o2)cc1	25.4		21	
COc1cc2c(cc1OC)CN(C(=O)c1ccc(-c3ccc(OC(C)C)cc3)o1)CC2	20		38.1	fold change (FC) [8]: 6.7; Activity (NCI/ADR-RES [9]): inactive; inhibition (INH) [10]: Not Active; inhibition (INH) [11]: Active; fold change (FC) [12]: 1.9; inhibition (INH) [13]: Active
CC(=O)O[C@H]1C(=O)[C@@]2(C)[C@H]([C@H](OC(=O)c3ccccc3)[C@]3(O)C[C@H](OC(=O)[C@H](O)[C@@H](NC(=O)c4ccccc4)c4ccccc4)C(C)=C1C3(C)C)[C@]1(OC(C)=O)CO[C@@H]1C[C@@H]2O [PACLITAXEL]				IC50 (NCI/ADR-RES [5]): 58.7 µM; fold change (FC) [14]: 22.6
CCCOc1ccc(-c2ccc(C(=O)N3CCc4cc(OC)c(OC)cc4C3)o2)cc1	32.3		36.2	
C/C=C/C[C@@H](C)[C@@H](O)[C@H]1C(=O)N[C@@H](CC)C(=O)N(C)CC(=O)N(C)[C@@H](CC(C)C)C(=O)N[C@@H](C(C)C)C(=O)N(C)[C@@H](CC(C)C)C(=O)N[C@@H](C)C(=O)N[C@H](C)C(=O)N(C)[C@@H](CC(C)C)C(=O)N(C)[C@@H](CC(C)C)C(=O)N(C)[C@@H](C(C)C)C(=O)N1C [CYCLOSPORINE]		19.3		inhibition at 10 µM [1]: 22.7%
COc1ccc(-c2ccc(C(=O)N3CCc4cc(OC)c(OC)cc4C3)o2)cc1	-2.1		20.4	
COc1cc2c(cc1OC)CN(C(=O)c1ccc(-c3ccc4c(c3)OCO4)o1)CC2	5.4		34	
COc1ccc(CCN(C)CCCC(C#N)(c2ccc(OC)c(OC)c2)C(C)C)cc1OC (stereo unspecified)		8.3		inhibition at 10 µM [1]: 25%
COc1cc2c(cc1OC)CN(C(=O)c1ccc(-c3ccccc3OC)o1)CC2	36.9	55.9	66	
COc1cc(OC)cc(-c2ccc(C(=O)N3CCc4cc(OC)c(OC)cc4C3)o2)c1	52.9	19.8	81.8	inhibition at 10 µM [1]: 21.7%
